Experimental data reported in patent US9034311B2, “Pyridin-2(1 H)-one derivatives as JAK inhibitors” (ALMIRALL, S.A., priority 2011, dated 2015).

Assays:
Type in all cases: biochemical
[1] = biological target: T1, human JAK1 (aa 850-1154) catalytic domain (Homo sapiens, UniProt P23458); assay: In vitro JAK kinase assay (TR-FRET), JAK1; details: ATP 3 μM, peptide 60 nM, 30 minutes at room temperature
T1 construct: human JAK1 (aa 850-1154); purchased Carna Biosciences; host or cells: baculovirus expression system (insect cells)
Description: (§1) Compounds were screened for their ability to inhibit JAK1, JAK2 and JAK3 using the assays as indicated below.
(§2) The catalytic domains of human JAK1 (aa 850-1154), JAK2 (aa 826-1132), JAK3 (aa 795-1124) and Tyk2 (aa 871-1187) were expressed as N-terminal GST-fusion proteins using a baculovirus expression system and were purchased from Carna Biosciences. The enzymatic activity was assayed using as substrate a biotinylated peptide, poly (GT)-Biotin (CisBio). The peptide concentration in the reactions was 60 nM for JAK1, 20 nM for JAK2, 140 nM for JAK3 and 50 nM for Tyk2. The degree of phosphorylation was detected by TR-FRET (time-resolved fluorescence energy transfer).
(§3) IC50s of compounds were measured for each kinase in a reaction mixture containing the enzyme, ATP and the peptide in 8 mM MOPS (pH 7.0), 10 mM MgCl2, 0.05% β-mercaptoethanol, 0.45 mg/ml BSA. The ATP concentration in the reactions was 3 μM for JAK1, 0.2 μM for JAK2, 0.6 μM for JAK3 and 1.8 μM for Tyk2. The enzymatic reactions took place for 30 minutes at room temperature. Then, the reactions were stopped with 20 μL of quench detection buffer (50 mM HEPES, 0.5 M KF, EDTA 0.25 M, 0.1% (w/v) BSA, pH 7.5) containing 0.115 μg/mL of anti-phosphoTyr (PT66)-Cryptate (CisBio) and a variable concentration of SA-XL665 (CisBio) to keep the SA-B ratio constant. Incubate for 3 h and read on Victor 2V spectrofluorometer (Perkin Elmer) set to read fluorescence resonance energy transfer.

[2] = biological target: T2, human JAK2 (aa 826-1132) catalytic domain (Homo sapiens, UniProt O60674); assay: In vitro JAK kinase assay (TR-FRET), JAK2; details: ATP 0.2 μM, peptide 20 nM, 30 minutes at room temperature
T2 construct: JAK2 (aa 826-1132); purchased Carna Biosciences; host or cells: baculovirus expression system (insect cells)
Description: as §1, §2, §3

[3] = biological target: T3, human JAK3 (aa 795-1124) catalytic domain (Homo sapiens, UniProt P52333); assay: In vitro JAK kinase assay (TR-FRET), JAK3; details: ATP 0.6 μM, peptide 140 nM, 30 minutes at room temperature
T3 construct: JAK3 (aa 795-1124); purchased Carna Biosciences; host or cells: baculovirus expression system (insect cells)
Description: as §1, §2, §3

T3 sequence (P52333 795-1124): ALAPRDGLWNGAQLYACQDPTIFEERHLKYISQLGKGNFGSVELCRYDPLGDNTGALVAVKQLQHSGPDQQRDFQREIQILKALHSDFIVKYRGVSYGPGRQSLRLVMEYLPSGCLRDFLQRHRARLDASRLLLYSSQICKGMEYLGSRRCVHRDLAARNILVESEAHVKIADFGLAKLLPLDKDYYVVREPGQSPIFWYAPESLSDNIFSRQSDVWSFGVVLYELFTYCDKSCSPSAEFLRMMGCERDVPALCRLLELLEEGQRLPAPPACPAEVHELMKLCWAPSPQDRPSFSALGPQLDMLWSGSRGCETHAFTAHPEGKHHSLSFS
T1 sequence (P23458 850-1154): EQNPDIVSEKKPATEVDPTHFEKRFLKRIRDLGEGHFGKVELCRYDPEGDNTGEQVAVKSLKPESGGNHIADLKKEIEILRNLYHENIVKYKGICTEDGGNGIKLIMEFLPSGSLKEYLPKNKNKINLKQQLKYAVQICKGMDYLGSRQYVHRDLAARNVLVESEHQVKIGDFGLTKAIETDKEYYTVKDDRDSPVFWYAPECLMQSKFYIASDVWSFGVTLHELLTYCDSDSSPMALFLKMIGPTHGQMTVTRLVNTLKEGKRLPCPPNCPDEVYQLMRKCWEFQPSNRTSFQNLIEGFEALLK
T2 sequence (O60674 826-1132): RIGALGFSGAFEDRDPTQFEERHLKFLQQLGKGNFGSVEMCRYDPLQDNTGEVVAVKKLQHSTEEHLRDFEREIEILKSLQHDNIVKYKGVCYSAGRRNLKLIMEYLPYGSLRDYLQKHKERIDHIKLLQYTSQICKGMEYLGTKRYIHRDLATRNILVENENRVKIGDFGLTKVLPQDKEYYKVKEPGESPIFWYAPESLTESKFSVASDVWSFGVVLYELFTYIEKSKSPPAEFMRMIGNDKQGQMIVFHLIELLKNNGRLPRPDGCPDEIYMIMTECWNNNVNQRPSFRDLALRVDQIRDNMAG

Row | Compound | IC50 [1] | IC50 [2] | IC50 [3]
1 | O=c1[nH]cccc1Nc1nccc(N[C@H]2CC[C@H](CS(=O)(=O)N3CCCC(O)C3)CC2)n1 (relative stereo) [Example 14, 3-({4-[(trans-4-{[(3-hydroxypiperidin-1-yl)sulfonyl]methyl}cyclohexyl)amino]pyrimidin-2-yl}amino)pyridin-2(1H)-one] | > 1000 nM | < 100 nM | 100 to 1000 nM
2 | COc1cnc(Nc2ccc[nH]c2=O)nc1N[C@@H](C)c1ccc(F)cn1 [Example 4, 3-[(4-{[(1S)-1-(5-fluoropyridin-2-yl)ethyl]amino}-5-methoxypyrimidin-2-yl)amino]pyridin-2(1H)-one] | < 100 nM | < 100 nM | < 100 nM
3 | C[C@H](Nc1nc(Nc2ccc[nH]c2=O)ncc1O)c1ccc(F)cn1 [Example 5, 3-[(4-{[(1S)-1-(5-fluoropyridin-2-yl)ethyl]amino}-5-hydroxypyrimidin-2-yl)amino]pyridin-2(1H)-one] | < 100 nM | < 100 nM | < 100 nM
4 | C[C@H](Nc1nc(Nc2ccc[nH]c2=O)ncc1C(N)=O)c1ccc(F)cn1 [Example 6, (S)-4-(1-(5-fluoropyridin-2-yl)ethylamino)-2-(2-oxo-1,2-dihydropyridin-3-ylamino) pyrimidine-5-carboxamide] | 100 to 1000 nM | < 100 nM | < 100 nM
5 | Cc1cnc(Nc2cc(Cl)c[nH]c2=O)nc1N[C@@H](C)c1ccc(F)cn1 [Example 7, (S)-5-chloro-3-(4-(1-(5-fluoropyridin-2-yl)ethylamino)-5-methylpyrimidin-2-ylamino)pyridin-2(1H)-one] | < 100 nM | < 100 nM | < 100 nM
6 | C[C@H](Nc1cncc(Nc2ccc[nH]c2=O)n1)c1ccc(F)cn1 [Example 11, 3-[(6-{[(1S)-1-(5-Fluoropyridin-2-yl)ethyl]amino}pyrazin-2-yl)amino]pyridin-2(1H)-one] | < 100 nM | < 100 nM | < 100 nM
7 | C[C@H](Nc1cccc(Nc2ccc[nH]c2=O)n1)c1ccc(F)cn1 [Example 12] | 100 to 1000 nM | < 100 nM | < 100 nM
8 | Cc1cnc(Nc2ccc[nH]c2=O)nc1N[C@H]1CC[C@H](CC#N)CC1 [Example 13, 2-((1r,4r)-4-(5-Methyl-2-(2-oxo-1,2-dihydropyridin-3-ylamino)pyrimidin-4-ylamino)cyclohexyl)acetonitrile] | < 100 nM | < 100 nM | < 100 nM
9 | N#CCC(=O)N1CCC[C@@H](Nc2nc(Nc3ccc[nH]c3=O)ncc2F)C1 [Example 17, (R)-3-(3-(5-Fluoro-2-(2-oxo-1,2-dihydropyridin-3-ylamino)pyrimidin-4-ylamino)piperidin-1-yl)-3-oxopropanenitrile] | < 100 nM | < 100 nM | < 100 nM
10 | O=c1[nH]cccc1Nc1ncc(F)c(N[C@@H]2CCCN(c3nnc[nH]3)C2)n1 [Example 18, (R)-3-(4-(1-(4H-1,2,4-Triazol-3-yl)piperidin-3-ylamino)-5-fluoropyrimidin-2-ylamino) pyridin-2(1H)-one] | 100 to 1000 nM | < 100 nM | < 100 nM
11 | N#CCC(=O)N1CCC[C@@H](Nc2nc(Nc3ccc[nH]c3=O)nc(N3CCOCC3)c2F)C1 [Example 20, 3-[(3R)-3-({5-fluoro-6-morpholin-4-yl-2-[(2-oxo-1,2-dihydropyridin-3-yl)amino]pyrimidin-4-yl}amino)piperidin-1-yl]-3-oxopropanenitrile] | < 100 nM | < 100 nM | < 100 nM
12 | Cc1c(Nc2ccc[nH]c2=O)nc(N[C@@H]2CCCN(C(=O)CC#N)C2)nc1N1CCOCC1 [Example 22, 3-[(3R)-3-({5-methyl-4-morpholin-4-yl-6-[(2-oxo-1,2-dihydropyridin-3-yl)amino]pyrimidin-2-yl}amino)piperidin-1-yl]-3-oxopropanenitrile] | < 100 nM | < 100 nM | < 100 nM
